# Laboratory results reported in patent US9587005B2 (priority 2010, dated 2017).
# pEC50: −log10 of the molar value. Where two headings read alike, the source gives them in different places. *1 amine or outer side, *2 acyl side, *3 side chain or, on linkers, in order; H or OH if unused. Where a SMILES comes first, the peptide text is derived from it. Where no end group is shown, it is not given here. Side-chain parts run from the residue outwards. [ ]: non-standard residue; d: D form. The star is where a group is joined. γGlu = O=C(O)[C@H](CCC(=O)[*:2])N[*:1]; X6 = CCCCCCCCCCCCCCCCC(CC(=O)*)C(=O)O; Palmitoyl = CCCCCCCCCCCCCCCC(=O)*; Aib = CC(C)(N)C(=O)O
# Assays:
# Type in all cases: cell-based
# GLP-1 receptor = target: T1, GLP-1 receptor (Homo sapiens, UniProt P43220); experiment: cAMP induction, firefly luciferase reporter assay in HEK293 cells co-transfected with GLP-1 receptor
# T1 construct: expressed in transfected cells; host or cells: HEK293
# Source text: (§1) This example describes an exemplary method of testing the biological activity of the peptides of the present disclosures, which method involves assaying cAMP synthesis.
# glucagon receptor = target: T2, glucagon receptor (Homo sapiens, UniProt P47871); experiment: cAMP induction, firefly luciferase reporter assay in HEK293 cells co-transfected with glucagon receptor
# T2 construct: expressed in transfected cells; host or cells: HEK293
# Source text: as §1
# GIP receptor = target: T3, GIP receptor (Homo sapiens, UniProt P48546); experiment: cAMP induction, firefly luciferase reporter assay in HEK293 cells co-transfected with GIP receptor
# T3 sequence (P48546 22-466): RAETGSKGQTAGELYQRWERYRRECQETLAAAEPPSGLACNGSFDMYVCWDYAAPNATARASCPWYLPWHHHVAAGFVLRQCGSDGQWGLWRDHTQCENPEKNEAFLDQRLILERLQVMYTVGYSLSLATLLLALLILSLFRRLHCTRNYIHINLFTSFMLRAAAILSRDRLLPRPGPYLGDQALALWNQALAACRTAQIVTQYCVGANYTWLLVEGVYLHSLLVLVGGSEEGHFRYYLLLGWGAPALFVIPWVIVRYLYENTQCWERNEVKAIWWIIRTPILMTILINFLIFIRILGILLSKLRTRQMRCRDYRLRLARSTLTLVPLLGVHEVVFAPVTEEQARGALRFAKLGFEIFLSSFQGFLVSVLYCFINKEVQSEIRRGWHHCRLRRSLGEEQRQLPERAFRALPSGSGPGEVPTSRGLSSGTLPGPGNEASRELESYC
# [1] = Table 3, relative to the activity of the native hormone
# T2 sequence (P47871 26-477): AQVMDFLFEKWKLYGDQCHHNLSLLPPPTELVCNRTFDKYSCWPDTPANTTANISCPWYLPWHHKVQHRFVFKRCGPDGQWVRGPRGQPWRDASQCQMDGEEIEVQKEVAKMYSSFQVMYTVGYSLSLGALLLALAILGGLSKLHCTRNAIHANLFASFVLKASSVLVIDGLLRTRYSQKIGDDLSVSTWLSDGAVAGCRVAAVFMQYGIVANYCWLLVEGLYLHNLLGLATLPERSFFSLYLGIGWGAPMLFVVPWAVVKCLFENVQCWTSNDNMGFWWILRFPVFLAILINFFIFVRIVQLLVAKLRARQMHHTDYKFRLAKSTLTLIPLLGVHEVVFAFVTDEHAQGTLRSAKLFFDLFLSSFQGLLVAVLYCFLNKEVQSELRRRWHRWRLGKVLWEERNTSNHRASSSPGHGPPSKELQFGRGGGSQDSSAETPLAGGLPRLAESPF
# T1 sequence (P43220 24-463): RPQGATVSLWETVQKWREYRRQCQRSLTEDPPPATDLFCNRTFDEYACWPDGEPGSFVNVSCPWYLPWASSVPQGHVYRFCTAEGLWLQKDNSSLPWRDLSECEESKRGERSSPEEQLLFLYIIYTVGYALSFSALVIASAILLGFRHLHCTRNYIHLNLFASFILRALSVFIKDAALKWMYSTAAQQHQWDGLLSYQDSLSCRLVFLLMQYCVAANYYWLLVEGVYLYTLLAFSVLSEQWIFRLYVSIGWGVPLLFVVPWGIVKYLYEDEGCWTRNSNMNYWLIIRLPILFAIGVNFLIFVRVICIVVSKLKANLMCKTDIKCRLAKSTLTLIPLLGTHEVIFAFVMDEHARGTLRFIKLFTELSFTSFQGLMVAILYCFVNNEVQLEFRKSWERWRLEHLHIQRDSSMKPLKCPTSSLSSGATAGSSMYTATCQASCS
compound,measurement,setting,value
"Example 8 peptide: Tyr1, AIB2, Glu16/Lys20 lactam, Leu-Ala-Gly 27-29, GPSSGAPPPS 30-39, or a peptide lacking a lactam [mt-228]",pEC50,"GLP-1 receptor; Table 3, Example 8, read-out: GLP-1R EC50",9.84
same,GLP-1R relative activity,GLP-1 receptor; [1],19.86%
same,GR relative activity,glucagon receptor; [1],1.01%
same,pEC50,"GIP receptor; Table 3, Example 8, read-out: GIPR EC50",8.64
same,GIPR relative activity,GIP receptor; [1],0.75%
CCCCCCCCCCCCCCCC(=O)N[C@@H](CCC(=O)NCCCC[C@H](NC(=O)CC[C@H](NC(=O)CCCCCCCCCCCCCCC)C(=O)O)C(=O)NCCCC[C@H](NC(=O)[C@H](CC(=O)O)NC(=O)[C@H](CO)NC(=O)[C@@H](NC(=O)[C@H](Cc1ccccc1)NC(=O)[C@@H](NC(=O)CNC(=O)[C@H](CCC(N)=O)NC(=O)C(C)(C)NC(=O)[C@@H](N)Cc1c[nH]cn1)[C@@H](C)O)[C@@H](C)O)C(=O)N[C@@H](CO)C(=O)N[C@@H](CCCCN)C(=O)N[C@@H](Cc1ccc(O)cc1)C(=O)N[C@@H](CC(C)C)C(=O)N[C@@H](CC(=O)O)C(=O)N[C@@H](CCC(=O)O)C(=O)N[C@@H](CCCNC(=N)N)C(=O)N[C@@H](C)C(=O)N[C@@H](C)C(=O)N[C@@H](CCC(N)=O)C(=O)N[C@@H](CC(=O)O)C(=O)N[C@@H](Cc1ccccc1)C(=O)N[C@H](C(=O)N[C@@H](CCC(N)=O)C(=O)N[C@@H](Cc1c[nH]c2ccccc12)C(=O)N[C@@H](CC(C)C)C(=O)N[C@@H](CC(C)C)C(=O)N[C@@H](CC(=O)O)C(=O)NCC(=O)NCC(=O)N1CCC[C@H]1C(=O)N[C@@H](CO)C(=O)N[C@@H](CO)C(=O)NCC(=O)N[C@@H](C)C(=O)N1CCC[C@H]1C(=O)N1CCC[C@H]1C(=O)N1CCC[C@H]1C(=O)N[C@@H](CO)C(N)=O)C(C)C)C(=O)O [SEQ ID NO: 160],pEC50,"GLP-1 receptor; Table 12, Example 19, read-out: EC50 (cAMP, nmole) GLPR",11.15
same,pEC50,"glucagon receptor; Table 12, Example 19, read-out: EC50 (cAMP, nmole) GCGR",10.62
same,pEC50,"GIP receptor; Table 12, Example 19, read-out: EC50 (cAMP, nmole) GIPR",10.82
H[Aib]QGTFTSDYSKYLDERAAQDFVQWLLDGGPSSGAPPPSK(X6)G-NH2 [SEQ ID NO: 156],pEC50,"GLP-1 receptor; GLP-1 Receptor EC50, Table 11, Example 18",11.52
same,pEC50,glucagon receptor,11.52
same,pEC50,"GIP receptor; GIP Receptor EC50, Table 11, Example 18",11.22
CCCCCCCCCCCCCCCC(=O)N[C@@H](CCC(=O)NCCCC[C@H](NC(=O)[C@H](CC(=O)O)NC(=O)[C@H](CO)NC(=O)[C@@H](NC(=O)[C@H](Cc1ccccc1)NC(=O)[C@@H](NC(=O)CNC(=O)[C@H](CCC(N)=O)NC(=O)C(C)(C)NC(=O)[C@@H](N)Cc1c[nH]cn1)[C@@H](C)O)[C@@H](C)O)C(=O)N[C@@H](CO)C(=O)N[C@@H](CCCCN)C(=O)N[C@@H](Cc1ccc(O)cc1)C(=O)N[C@@H](CC(C)C)C(=O)N[C@@H](CC(=O)O)C(=O)N[C@@H](CCC(=O)O)C(=O)N[C@@H](CCCNC(=N)N)C(=O)N[C@@H](CCCNC(=N)N)C(=O)N[C@@H](C)C(=O)NC(C)(C)C(=O)N[C@@H](CCC(=O)O)C(=O)N[C@@H](Cc1ccccc1)C(=O)N[C@H](C(=O)N[C@@H](CCC(N)=O)C(=O)N[C@@H](Cc1c[nH]c2ccccc12)C(=O)N[C@@H](CC(C)C)C(=O)N[C@@H](CC(C)C)C(=O)N[C@@H](CC(=O)O)C(=O)NCC(=O)NCC(=O)N1CCC[C@H]1C(=O)N[C@@H](CO)C(=O)N[C@@H](CO)C(=O)NCC(=O)N[C@@H](C)C(=O)N1CCC[C@H]1C(=O)N1CCC[C@H]1C(=O)N1CCC[C@H]1C(=O)N[C@@H](CO)C(N)=O)C(C)C)C(=O)O [compound 37] (H-H[Aib]QGTFTSDK([γGlu-Palmitoyl])SKYLDERRA[Aib]EFVQWLLDGGPSSGAPPPS-NH2; N-terminus assumed),EC50,"GLP-1 receptor; EC50 (nM) at GLP-1 Receptor, Table 4, Example 9, composite of multiple different activity assays",0.006 nM
same,EC50,"glucagon receptor; EC50 (nM) at Glucagon Receptor, Table 4, Example 9, composite of multiple different activity assays",0.004 nM
same,EC50,"GIP receptor; EC50 (nM) at GIP Receptor, Table 4, Example 9, composite of multiple different activity assays",0.002 nM
